Columns and labels:
[1] = 101 kPa, Liquid; for mass density: Vibrating tube method; for speed of sound: vibrating tube
[2] = mn = molality of the nth substance listed, in mol/kg; settings: 101 kPa, Liquid; for mass density: Vibrating tube method; for speed of sound: vibrating tube:WF =

O [water]
[1]
Settings | mass density [kg/m3] | speed of sound [m/s]
305.15 K | 995.09 | 1513.5
310.15 K | 993.403 | 1523.5
315.15 K | 991.51 | 1532.2

CC(C)C[C@H](NC(=O)[C@H](C)N)C(=O)O [L-alanyl-L-leucine] + O
[2]
Settings | mass density, 305.15 K [kg/m3] | mass density, 310.15 K [kg/m3] | mass density, 315.15 K [kg/m3] | speed of sound, 305.15 K [m/s] | speed of sound, 310.15 K [m/s] | speed of sound, 315.15 K [m/s]
m1 = 0.00185 | 995.164 | 993.476 | 991.582 | 1514.3 | 1524.7 | 1533.2
m1 = 0.00389 | 995.246 | 993.556 | 991.661 | 1514.4 | 1525 | 1533.4
m1 = 0.00579 | 995.323 | 993.631 | 991.734 | 1514.6 | 1525.2 | 1533.7
m1 = 0.00813 | 995.416 | 993.723 | 991.825 | 1514.7 | 1525.4 | 1533.9
m1 = 0.00966 | 995.478 | 993.783 | 991.884 | 1514.9 | 1525.7 | 1534
m1 = 0.0122 | 995.579 | 993.883 | 991.982 | 1515 | 1525.9 | 1534.3
m1 = 0.01422 | 995.66 | 993.962 | 992.06 | 1515.1 | 1526 | 1534.5
m1 = 0.01589 | 995.727 | 994.027 | 992.124 | 1515.3 | 1526.3 | 1534.7
m1 = 0.01753 | 995.792 | 994.092 | 992.188 | 1515.5 | 1526.6 | 1534.9
m1 = 0.02055 | 995.913 | 994.21 | 992.304 | 1515.6 | 1526.7 | 1535

C[C@H](N)C(=O)N[C@@H](C)C(=O)O [L-alanyl-L-alanine] + O
[2]
Settings | mass density, 305.15 K [kg/m3] | mass density, 310.15 K [kg/m3] | mass density, 315.15 K [kg/m3] | speed of sound, 305.15 K [m/s] | speed of sound, 310.15 K [m/s] | speed of sound, 315.15 K [m/s]
m1 = 0.00215 | 995.223 | 993.535 | 991.641 | 1514.2 | 1524.5 | 1532.9
m1 = 0.00421 | 995.35 | 993.662 | 991.767 | 1514.4 | 1524.8 | 1533
m1 = 0.00596 | 995.458 | 993.769 | 991.873 | 1514.5 | 1524.9 | 1533.1
m1 = 0.00831 | 995.604 | 993.913 | 992.016 | 1514.7 | 1525.1 | 1533.2
m1 = 0.00955 | 995.68 | 993.989 | 992.092 | 1514.9 | 1525.3 | 1533.4
m1 = 0.01169 | 995.812 | 994.12 | 992.222 | 1515 | 1525.5 | 1533.6
m1 = 0.01422 | 995.968 | 994.275 | 992.376 | 1515.2 | 1525.6 | 1533.7
m1 = 0.01594 | 996.074 | 994.38 | 992.48 | 1515.3 | 1525.8 | 1533.9
m1 = 0.01778 | 996.187 | 994.493 | 992.592 | 1515.5 | 1526 | 1534.1
m1 = 0.01983 | 996.314 | 994.618 | 992.716 | 1515.7 | 1526.2 | 1534.2

From the NIST ThermoML archive (doi:10.1016/j.tca.2013.09.006)
